These results are taken from US20070293446A1, “Compositions comprising C-13 alkoxyether macrolide compounds and phenylpyrazole compounds” (priority 1996, published 2007).

Each structure is given as a SMILES string.

The format of the data set is physicochemical. From the text: The solvent will be used in proportion with the concentration of the compound I and its solubility in this solvent. […] It will be sought to have the lowest possible volume. The vehicle makes up the difference to 100%.

`N#Cc1nn(-c2c(Cl)cc(C(F)(F)F)cc2Cl)c(N)c1[S+]([O-])C(F)(F)F` (stereo not shown) [fipronil, 1-[2,6—Cl2-4—CF3 phenyl]-3—CN-4-[SO-CF3]-5—NH2 pyrazole]: the Solubility was determined as 4.3 % m/V.
